Assays:
Rat NHE3 = biological target: T1, Rat NHE3 (Rattus norvegicus, UniProt P26433); test: Cell-based NHE3 activity under prompt conditions (OK cells, BCECF pH recovery), rat NHE3; settings: prompt conditions
T1 construct: expressed in transfected cells; host or cells: Opossum kidney (OK) cells (ATCC), electroporation
Method in brief: (§1)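 OK cells electroporated with rat or human NHE3 were loaded with 5 μM BCECF-AM in NH4Cl-HEPES (pH 7.4) for 30 min at room temperature, then acid-loaded 10 min in Na+-free choline-HEPES.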

Human NHE3 = biological target: T2, Human NHE3 (Homo sapiens, UniProt P48764); test: Cell-based NHE3 activity under prompt conditions (OK cells, BCECF pH recovery), human NHE3; settings: prompt conditions
T2 construct: expressed in transfected cells; host or cells: Opossum kidney (OK) cells (ATCC), electroporation
T2 sequence (P48764 26-834): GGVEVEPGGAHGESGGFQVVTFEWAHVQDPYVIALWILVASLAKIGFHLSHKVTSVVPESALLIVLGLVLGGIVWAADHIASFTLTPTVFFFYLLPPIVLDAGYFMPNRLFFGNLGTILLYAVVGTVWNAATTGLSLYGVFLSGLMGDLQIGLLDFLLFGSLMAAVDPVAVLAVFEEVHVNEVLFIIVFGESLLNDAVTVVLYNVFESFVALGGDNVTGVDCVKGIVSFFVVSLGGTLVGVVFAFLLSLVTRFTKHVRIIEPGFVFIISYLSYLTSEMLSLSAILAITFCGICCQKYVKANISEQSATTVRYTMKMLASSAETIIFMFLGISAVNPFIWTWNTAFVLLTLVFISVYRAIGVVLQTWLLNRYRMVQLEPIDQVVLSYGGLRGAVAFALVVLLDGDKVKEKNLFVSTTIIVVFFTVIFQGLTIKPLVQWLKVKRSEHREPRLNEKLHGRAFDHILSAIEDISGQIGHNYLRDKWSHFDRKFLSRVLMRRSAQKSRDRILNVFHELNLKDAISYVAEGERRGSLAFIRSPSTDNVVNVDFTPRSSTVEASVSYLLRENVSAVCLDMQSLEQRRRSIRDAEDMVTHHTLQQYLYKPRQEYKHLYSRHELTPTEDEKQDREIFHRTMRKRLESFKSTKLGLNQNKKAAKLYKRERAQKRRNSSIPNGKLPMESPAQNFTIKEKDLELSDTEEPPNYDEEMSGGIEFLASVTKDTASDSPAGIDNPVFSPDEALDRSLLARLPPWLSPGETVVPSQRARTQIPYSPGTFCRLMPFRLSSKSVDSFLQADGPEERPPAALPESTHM
Method in brief: as §1

[1] = system: absorption of sodium from the intestinal lumen; test: Inhibition of intestinal sodium absorption: urinary sodium (uNa) 16 h after single oral dose in rats; type: in vivo, rat; settings: oral gavage, 16 h post-dose
Method in brief: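 Eight-week-old Sprague-Dawley rats (n=6) given single oral gavage of compound or water vehicle in the late afternoon, then kept in metabolic cages with chow and water ad libitum. Urine collected over 16 h; sodium quantified by ion chromatography and expressed as % of vehicle mean, compared by one-way ANOVA with Dunnett's test.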

[2] = system: absorption of sodium from the intestinal lumen; test: Fecal form score (FFS) 16 h after oral dose in rats; type: in vivo, rat; settings: oral gavage, 16 h post-dose, scale 1-5
Method in brief: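 Eight-week-old Sprague-Dawley rats (n=6) dosed by oral gavage with compound or water vehicle between 4 and 5 PM, then housed in metabolic cages with food and water ad libitum. At 16 h, fecal form scored 1 (normal pellet) to 5 (liquid streams) by two observers; group mean reported.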

[3] = system: phosphorus and calcium levels in the urine of rats; test: Urinary excretion of phosphate and calcium in rats (16 h overnight urine); type: in vivo, rat; settings: rats, oral gavage, 16 h post-dose

T1 sequence (P26433 29-831): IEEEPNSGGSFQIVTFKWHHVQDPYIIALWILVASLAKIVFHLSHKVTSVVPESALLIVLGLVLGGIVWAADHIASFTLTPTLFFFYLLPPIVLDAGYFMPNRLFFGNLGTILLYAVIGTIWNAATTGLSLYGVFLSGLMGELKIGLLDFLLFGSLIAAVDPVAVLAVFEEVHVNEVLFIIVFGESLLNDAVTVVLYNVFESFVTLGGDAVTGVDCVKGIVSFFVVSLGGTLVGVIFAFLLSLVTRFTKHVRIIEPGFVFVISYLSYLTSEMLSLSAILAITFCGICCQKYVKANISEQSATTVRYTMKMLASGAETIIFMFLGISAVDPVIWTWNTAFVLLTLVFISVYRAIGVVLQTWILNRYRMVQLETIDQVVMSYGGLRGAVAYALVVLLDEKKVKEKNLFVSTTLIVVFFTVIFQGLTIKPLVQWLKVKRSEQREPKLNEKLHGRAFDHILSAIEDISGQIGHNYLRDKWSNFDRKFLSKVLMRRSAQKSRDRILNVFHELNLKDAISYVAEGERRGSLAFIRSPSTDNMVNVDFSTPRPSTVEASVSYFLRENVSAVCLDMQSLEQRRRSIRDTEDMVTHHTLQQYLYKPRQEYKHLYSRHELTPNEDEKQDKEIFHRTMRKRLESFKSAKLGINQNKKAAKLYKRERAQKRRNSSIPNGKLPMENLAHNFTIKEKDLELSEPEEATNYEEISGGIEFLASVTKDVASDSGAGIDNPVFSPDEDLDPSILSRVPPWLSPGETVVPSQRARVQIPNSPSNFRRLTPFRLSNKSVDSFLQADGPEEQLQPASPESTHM

Row | Compound | Prompt Rat NHE3 pIC50 (Rat NHE3) | Prompt Human NHE3 pIC50 (Human NHE3) | Urine Na % of control ([1]; dose 10 mg/kg) [%] | Urine Na % of control ([1]; dose 30 mg/kg) [%] | Fecal Form Score average ([2]; dose 10 mg/kg) | Fecal Form Score average ([2]; dose 30 mg/kg) | Urine P % of control ([3]; dose 10 mg/kg) [%] | Urine P % of control ([3]; dose 30 mg/kg) [%] | Urine Na % of control ([1]; dose 3 mg/kg) [%] | Fecal Form Score average ([2]; dose 3 mg/kg) | Urine P % of control ([3]; dose 3 mg/kg) [%] | Urine Na % of control ([1]; dose 1 mg/kg) [%] | Fecal Form Score average ([2]; dose 1 mg/kg) | Urine P % of control ([3]; dose 1 mg/kg) [%]
1 | N=C(N)Nc1nc(-c2ccc(N3CCN(CCOCCOCCOCCNC(=O)CCOCCOCCOCCOCCOCCC(=O)NCCOCCOCCOCCN4CCN(c5ccc(-c6nc(NC(=N)N)nc7ccc(Cl)cc67)cc5)CC4)CC3)cc2)c2cc(Cl)ccc2n1 [compound 24] | 7.68 | 8.58 | 100 | 27 | 1 | 3 | 80 | 70 |  |  |  |  |  | 
2 | CN1Cc2c(Cl)cc(Cl)cc2[C@H](c2cccc(S(=O)(=O)NCCOCCOCCNC(=O)CCC(CCC(=O)NCCOCCOCCNS(=O)(=O)c3cccc([C@@H]4CN(C)Cc5c(Cl)cc(Cl)cc54)c3)(CCC(=O)NCCOCCOCCNS(=O)(=O)c3cccc([C@@H]4CN(C)Cc5c(Cl)cc(Cl)cc54)c3)NC(=O)NC(CO)CO)c2)C1 [compound 178] | 7.10 | 7.33 |  |  |  |  |  |  | 18 | 3 | 46 |  |  | 
3 | CN1Cc2c(Cl)cc(Cl)cc2[C@H](c2cccc(S(=O)(=O)NCCOCCOCCOCCNC(=O)CN3CCN(c4nc(N5CCN(CC(=O)NCCOCCOCCOCCNS(=O)(=O)c6cccc([C@@H]7CN(C)Cc8c(Cl)cc(Cl)cc87)c6)CC5)nc(N5CCN(CC(=O)NCCOCCOCCOCCNS(=O)(=O)c6cccc([C@@H]7CN(C)Cc8c(Cl)cc(Cl)cc87)c6)CC5)n4)CC3)c2)C1 [compound 69] | 6.60 | 6.70 | 82 |  | 1 |  | 78 |  |  |  |  |  |  | 
4 | CN1Cc2c(Cl)cc(Cl)cc2[C@H](c2cccc(S(=O)(=O)NCCOCCOCCNC(=O)N(C)CCCN(CCCN(C)C(=O)NCCOCCOCCNS(=O)(=O)c3cccc([C@@H]4CN(C)Cc5c(Cl)cc(Cl)cc54)c3)CCCN(C)C(=O)NCCOCCOCCNS(=O)(=O)c3cccc([C@@H]4CN(C)Cc5c(Cl)cc(Cl)cc54)c3)c2)C1 [compound 107] | 6.90 | 8.10 | 28 |  | 4 |  | 59 |  | 55 | 1 | 66 | 88 | 1 | 106
5 | CN1Cc2c(Cl)cc(Cl)cc2[C@H](c2cccc(S(=O)(=O)NCCOCCOCCNC(=O)CN(CCN(CC(=O)O)CC(=O)NCCOCCOCCNS(=O)(=O)c3cccc([C@@H]4CN(C)Cc5c(Cl)cc(Cl)cc54)c3)CC(=O)O)c2)C1 [compound 81] | 7.90 | 7.90 | 11 |  | 2 |  | 42 |  |  |  |  |  |  | 
6 | CN(C)CC(=O)NC(CCC(=O)N(C)CCOCCOCCNS(=O)(=O)c1cccc([C@@H]2CN(C)Cc3c(Cl)cc(Cl)cc32)c1)(CCC(=O)N(C)CCOCCOCCNS(=O)(=O)c1cccc([C@@H]2CN(C)Cc3c(Cl)cc(Cl)cc32)c1)CCC(=O)N(C)CCOCCOCCNS(=O)(=O)c1cccc([C@@H]2CN(C)Cc3c(Cl)cc(Cl)cc32)c1 [compound 176] | 7.50 | 7.40 |  |  |  |  |  |  | 73 | 1 | 92 |  |  | 
7 | CN1Cc2c(Cl)cc(Cl)cc2[C@H](c2cccc(S(=O)(=O)NCCOCCOCCNC(=O)CCC(CCC(=O)NCCOCCOCCNS(=O)(=O)c3cccc([C@@H]4CN(C)Cc5c(Cl)cc(Cl)cc54)c3)(CCC(=O)NCCOCCOCCNS(=O)(=O)c3cccc([C@@H]4CN(C)Cc5c(Cl)cc(Cl)cc54)c3)NC(=O)COCC(=O)O)c2)C1 [compound 139] | 7.60 | 7.80 |  |  |  |  |  |  | 27 | 3 | 45 | 80 | 1 | 63
8 | CN(C)[C@H]1Cc2ccccc2[C@@H]1Oc1ccc(S(=O)(=O)NCCOCCOCCNC(=O)NCCCCNC(=O)NCCOCCOCCNS(=O)(=O)c2ccc(O[C@H]3c4ccccc4C[C@@H]3N(C)C)cc2)cc1 [compound 115] | <5.00 | 8.55 | 69 |  | 1 |  | 60 |  |  |  |  |  |  | 
